Assay results published in patent publication US20050096360A1, “Inhibitors of semicarbazide-sensitive amine oxidase (SSAO) and VAP-1 mediated adhesion useful for treatment of diseases” (priority 2003, published 2005).
Where two headings read alike, the source gives them in different places.

What was measured:
[1] = system: adhesion of human PBMCs to rat HEC transfected with full-length human SSAO/VAP-1; test: In vitro adhesion of PBMCs to SSAO/VAP-1-transfected high endothelial cells; assay type: cell-based; settings: inhibitors at IC100 concentrations, antibody 10 μg/ml; 3 hr at 37° C.
Experimental: The studies in this Example were carried out in order to determine whether SSAO/VAP-1 transfected into endothelial cells retained the adhesion function and whether it played any role in the adhesion of freshly isolated human PBMCs to these cells. Moreover, the studies were also designed to determine whether blocking of SSAO/VAP-1 would have an impact on the level of adhesion between these two cell types. Adhesion assays were performed using cells labeled with the fluorescent dye Calcein-AM (Molecular Probes, OR, USA) as per the manufacturer's instructions. Briefly, rat lymph node high endothelial cells (HEC; isolation and culture was described in Ager, A. (1987) J. Cell Sci. 87: 133) were plated overnight in 96-well plates (2,000 cells/well). PBMCs (peripheral blood mononuclear cells) (1×10^7) were labeled with 1 ml of 10 μM Calcein-AM for 1 hr at 37° C., washed three times with RPMI, and added to the 96 well plates containing monolayers of HEC cells mock-transfected or transfected with full-length human SSAO/VAP-1 (60,000 PBMCs were plated per well containing 2,000 HEC cells). Adhesion was carried out for 3 hr at 37° C. Non-adherent cells were removed by washing three times with RPMI and fluorescence was measured in a fluorescence plate reader at an excitation wavelength of 485 nm and emission wavelength of 530 nm. Several controls were included, such as HEC cells and PBMCs (labeled and unlabeled) alone.
(§1) These studies were repeated using the adhesion assay as described above to evaluate the inhibitors of the invention. Adhesion blockers used included an anti-human VAP-1 monoclonal antibody (Serotec, Oxford, UK), neuramidase (a sialidase, because SSAO/VAP-1 is a sialoglycoprotein; Sigma), and several function-blocking antibodies to rat adhesion molecules (CD31-PECAM, CD54-ICAM-1, […]-P Selectin). […] Antibodies (10 μg/ml) and neuramidase (5 mU) were incubated with the HECs for 30 min at 37° C.; excess antibody was washed away prior to the addition of the labeled PBMCs. Small-molecule inhibitors were pre-incubated the same way at IC100 concentrations, but the amounts present in the supernatant were not washed away to preserve the IC100 concentration during the adhesion step.

EAE in C57BL/6 mice = test: Experimental autoimmune encephalomyelitis (EAE), MOG 35-55; assay type: in vivo
Experimental: SSAO/VAP-1 is expressed on the endothelium of inflamed tissues/organs including brain and spinal cord. Its ability to support lymphocyte transendothelial migration may be an important systemic function of SSAO/VAP-1 in inflammatory diseases such as multiple sclerosis and Alzheimer's disease. An analysis of the use of SSAO inhibitors to treat inflammatory disease of the central nervous system (CNS) was performed through the use of an experimental autoimmune encephalomyelitis model (EAE) in C57BL/6 mice. EAE in rodents is a well-characterized and reproducible animal model of multiple sclerosis in human (Benson J. M. et al. (2000) J. Clin. Invest. 106:1031). Multiple sclerosis is a chronic immune-mediated disease of the CNS characterized by pachy perivenular inflammatory infiltrates in areas of demyelination and axonal loss. As an animal model, EAE can be induced in mice by immunization with encephalitogenic myelin antigens in the presence of adjuvant. The pathogenesis of EAE comprises presentation of myelin antigens to T cells, migration of activated T cells to the CNS, and development of inflammation and/or demyelination upon recognition of the same antigens.
Thirty female C57BL/6 mice were immunized subcutaneously (s.c). with myelin oligodendrocyte glycoprotein 35-55 (MOG peptide 35-55) in Complete Freund Adjuvant (CFA) on day 0, followed by i.p. injections of pertussis toxin (one pertussis toxin injection on day 0, a second pertussis toxin injection on day 2). Groups of 10 mice received either the allylamine compound mofegiline (AA, 10 mg/kg/dose, twice daily for 18 consecutive days), methotrexate (2.5 mg/kg/day, every other day (Mon., Weds., Fri.) till day 18) or vehicle control (twice/day for 18 consecutive days) all-starting from one day after the immunization and all administered i.p. Then animals were monitored for body weight, signs of paralysis and death according to a 0-5 scale of scoring system as follows: 1=limp tail or waddling gait with tail tonicity; 2=waddling gait with limp tail (ataxia); 2.5=ataxia with partial limb paralysis; 3=full paralysis of one limb; 3.5=full paralysis of one limb with partial paralysis of second limb; 4=full paralysis of two limbs; 4.5=moribund; 5=death. Results are shown in FIG. 2A, FIG. 2B, and FIG. 2C. […] (p=0.04 by repeated measure analysis to assess the treatment effect. Proper polynomial transformation, with the spacing corresponding to the collection days, was applied to test the time effect). Statistically significant differences in diseases severity between the AA and vehicle-treated groups, continued even after stopping compound administration and were observed until the end of the study (d25) .

[2] = Acute toxicity studies in mice; assay type: in vivo; settings: female, C57B1/6, mouse, in vivo, Day 7 values
Experimental: (§2) Intraperitoneal (i.p.) and intravenous (i.v.) LD50 values for the compounds of Examples 8 and 10, as well as mofegiline, the allylamine compound described in Example 18, were determined in mice. Six-week old C57B1/6 female mice were divided in groups of five and administered a single i.p or i.v. injection of compound dissolved in PBS (10-100 mg/kg in 100 ul i.v.; 30-500 mg/kg in 200 ul i.p.). Control groups were administered the same volume of PBS i.p. or i.v. Appearance and overt behavior were noted daily, and body weight was measured before compound administration (Day 1) and on Days, 3, 5 and 7. After seven days, animals were euthanized and their liver, spleen and kidneys weighted.
(§3) Acute toxicity effects for mofegiline included tremors (40 mg/kg i.v.; 100 mg/kg i.p.) and clonic convulsions and labored breathing (100 mg/kg i.v.; 200 mg/kg i.p.). […] All deaths occurred within 24 hours after drug administration. […] Thus, there is no indication of the cause of death for any of the compounds tested.

C57B1/6 female mice = test: Acute toxicity studies in mice; assay type: in vivo
Experimental: as §2, §3

SSAO = test: IC100 concentrations of SSAO inhibitors used in the adhesion assay; assay type: biochemical; settings: FIG. 7 legend
Source text: FIG. 7 depicts the effect of blockage of SSAO/VAP-1 on binding between peripheral blood mononuclear cells (PBMCs) and high endothelial cells (HEC). FIG. 7A is a control experiment showing the effect of various compounds used for treatment on the adhesion of PBMCs to mock-transfected high endothelial cells; a non-treated control is included for comparison (MNT). FIG. 7B is a control experiment showing the effect of various compounds used for treatment on the adhesion of PBMCs to high endothelial cells transfected with VAP-1; a non-treated control is included for comparison (VNT).
as §1

C#CCN(C)CCCOc1ccc(Cl)cc1Cl [Clorgyline, clorgyline]
number of PBMCs adherent to SSAO/VAP-1 transfected HECs [1]: no effect

NC/C(=C/F)CCc1ccc(F)cc1 [Mofegiline, mofegiline, reference compound]
disease severity (clinical score) (EAE in C57BL/6 mice; 10 mg/kg/dose i.p. twice daily for 18 days, p=0.04 vs vehicle): statistically significant reduction | disease incidence (mice affected) (EAE in C57BL/6 mice; 10 mg/kg/dose i.p. twice daily, dosing period up to day 18, vehicle 80%): 50% | body weight loss (EAE in C57BL/6 mice; 10 mg/kg/dose i.p. twice daily, dosing period, p=0.04): prevented | LD50 at 7 days ([2]; ip, single i.p. injection, read-out: LD50 intraperitoneal): 200 mg/kg | LD50 at 7 days ([2]; iv, single i.v. injection, read-out: LD50 intravenous): 70 mg/kg | dose causing tremors (C57B1/6 female mice; i.p.): 100 mg/kg | dose causing convulsions and labored breathing (C57B1/6 female mice; i.p. (see Table 2)): 200 mg/kg | dose causing clonic convulsions and labored breathing (C57B1/6 female mice; i.v.): 100 mg/kg | dose causing tremors (C57B1/6 female mice; i.v.): 40 mg/kg

C#CCN(C)Cc1ccccc1 [Pargyline, pargyline]
number of PBMCs adherent to SSAO/VAP-1 transfected HECs [1]: no effect

NNC(N)=O [Semicarbazide, semicarbazide]
IC100 (SSAO) (SSAO): 500 µM
